Laboratory results taken from patent publication US6737383B1, “Herbicidal oxadiazolidines” (priority 1999, dated 2004).

What was measured:
Alexandergrass = assay: Test D Alexandergrass; type: in vivo, Brachiaria plantaginea; details: Postemergence, 0 to 100 scale
large crabgrass = assay: Test D large crabgrass; type: in vivo, Digitaria sanguinalis; details: Postemergence, 0 to 100 scale
surinam grass = assay: Test D surinam grass; type: in vivo, Brachiaria decumbens; details: Postemergence, 0 to 100 scale
Green foxtail = assay: Test D green foxtail; type: in vivo; details: Rate 250 g/ha; Postemergence; 0 to 100 scale
[1] = Rate 16 g/ha, 0 no injury, 100 complete control
[2] = Rate 32 g/ha, 0 no injury, 100 complete control
[3] = Rate 64 g/ha, 0 no injury, 100 complete control
[4] = Rate 125 g/ha, 0 no injury, 100 complete control

Row | SMILES | Plant response rating, Alexandergrass (Alexandergrass; [1]) | Plant response rating, Alexandergrass (Alexandergrass; [2]) | Plant response rating, Alexandergrass (Alexandergrass; [3]) | Plant response rating, Alexandergrass (Alexandergrass; [4]) | Plant response rating, Alexandergrass (Alexandergrass; Rate 250 g/ha) | Plant response rating, Large crabgrass (large crabgrass; [1]) | Plant response rating, Large crabgrass (large crabgrass; [2]) | Plant response rating, Large crabgrass (large crabgrass; [3]) | Plant response rating, Large crabgrass (large crabgrass; [4]) | Plant response rating, Large crabgrass (large crabgrass; Rate 250 g/ha) | Plant response rating, Surinam grass (surinam grass; [1]) | Plant response rating, Surinam grass (surinam grass; [2]) | Surinam grass plant response rating (surinam grass; [3]) | Surinam grass plant response rating (surinam grass; [4]) | Plant response rating, Surinam grass (surinam grass; Rate 250 g/ha) | Plant response rating, Green foxtail (Green foxtail)
1 | CC(C)N(C(=O)n1oc(=O)n(C2CC2)c1=O)c1ccc(Cl)cc1 [Compound 241] | 0 | 10 | 10 | 100 | 100 | 0 | 70 | 100 | 100 | 100 | 0 | 0 | 60 | 100 | 100 | 100
2 | CC(C)N(C(=O)n1oc(=O)n(C2CCC2)c1=O)c1ccccc1 [Compound 348] | 0 | 0 | 70 | 100 | 100 | 20 | 60 | 100 | 100 | 100 | 0 | 0 | 20 | 80 | 100 | 100
3 | CC(C)N(C(=O)n1oc(=O)n(C2CCC2)c1=O)c1ccc(Cl)cc1 [Compound 349] | 0 | 0 | 40 | 70 | 90 | 0 | 0 | 70 | 100 | 100 | 0 | 0 | 0 | 10 | 60 | 100
